7 cell lines from the supplement of paper PMC10307832 can be followed below.

What all share (experiment): relative viability (nuclei count vs DMSO), 5 days (fraction); higher = more cells survive
Compound in the test “Cediranib + Foretinib”: COc1cc2c(Oc3ccc4[nH]c(C)cc4c3F)ncnc2cc1OCCCN1CCCC1 [Cediranib] + COc1cc2c(Oc3ccc(NC(=O)C4(C(=O)Nc5ccc(F)cc5)CC4)cc3F)ccnc2cc1OCCCN1CCOCC1 [Foretinib] (partner 0.25 µM)
In a few lines:
(§1)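 Cells from lung cancer lines were seeded into 1536-well plates and, one day later, dosed by pin tool. Treatments were either a single drug or a fixed dose of an anchor drug with five library-drug doses (not always all listed) in √10 steps. After 5 days, nuclei were stained in a one-step fixation (final 0.05% Triton X-100, 1% formaldehyde, 1 ug/ml Hoechst) and counted on 4× images, and relative viability is the treated-to-vehicle nuclei ratio, as the median of duplicate plates.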

Compound in test [1]: O=C(C[C@H]1NCCC[C@@H]1O)Cn1cnc2cc(Br)c(Cl)cc2c1=O (racemic) [Halofuginone] + CC(=O)Nc1cccc(-n2c(=O)n(C3CC3)c(=O)c3c(Nc4ccc(I)cc4F)n(C)c(=O)c(C)c32)c1 [Trametinib] (partner 0.02 µM)
An outline of the steps:
as §1

Compound in test [2]: O=C(C[C@H]1NCCC[C@@H]1O)Cn1cnc2cc(Br)c(Cl)cc2c1=O (racemic) [Halofuginone] + CCNC(=O)c1noc(-c2cc(C(C)C)c(O)cc2O)c1-c1ccc(CN2CCOCC2)cc1 [Luminespib] (partner 0.01 µM)
An outline of the steps: as §1

Compound in the test “Halofuginone + Lapatinib”: O=C(C[C@H]1NCCC[C@@H]1O)Cn1cnc2cc(Br)c(Cl)cc2c1=O (racemic) [Halofuginone] + CS(=O)(=O)CCNCc1ccc(-c2ccc3ncnc(Nc4ccc(OCc5cccc(F)c5)c(Cl)c4)c3c2)o1 [Lapatinib] (partner 2 µM)
An outline of the steps: as §1

In the case of NCI-H650, the relative viability was 1.03 with Cediranib + Foretinib (first compound 0.04 µM); 0.944 with Cediranib + Foretinib (first compound 0.1265 µM); 1 with Cediranib + Foretinib (first compound 0.4 µM); 1.09 with Cediranib + Foretinib (first compound 1.265 µM); 1.02 in the test with Cediranib + Foretinib (first compound 4 µM); 0.898 in test [1] (first compound 0.001 µM). Moreover, the relative viability in test [1] (first compound 0.003162 µM) was found to be 1.19; in test [1] (first compound 0.01 µM), 1.09; in test [1] (first compound 0.03162 µM) it was 1.08; in test [1] (first compound 0.1 µM), 0.77; in test [2] (first compound 0.001 µM), 0.793; in test [2] (first compound 0.003162 µM), 0.738. The relative viability in test [2] (first compound 0.01 µM) was 0.822; in test [2] (first compound 0.03162 µM) it was 0.667; in test [2] (first compound 0.1 µM), 0.59; with Halofuginone + Lapatinib (first compound 0.001 µM), 1.12; with Halofuginone + Lapatinib (first compound 0.003162 µM), 0.48; with Halofuginone + Lapatinib (first compound 0.01 µM) it was 1. For the same cell line, the relative viability was found to be 0.775 with Halofuginone + Lapatinib (first compound 0.03162 µM) and 0.515 with Halofuginone + Lapatinib (first compound 0.1 µM).
As to NCI-H661, the relative viability with Cediranib + Foretinib (first compound 0.04 µM) is 1.04; in the test with Cediranib + Foretinib (first compound 0.1265 µM), 0.971; in the test with Cediranib + Foretinib (first compound 0.4 µM) it was 0.956; with Cediranib + Foretinib (first compound 1.265 µM), 0.978; with Cediranib + Foretinib (first compound 4 µM) it was 1.11; in test [1] (first compound 0.001 µM), 0.624. Moreover, the relative viability stood at 0.629 in test [1] (first compound 0.003162 µM); 0.579 in test [1] (first compound 0.01 µM); 0.515 in test [1] (first compound 0.03162 µM); 0.373 in test [1] (first compound 0.1 µM); 0.83 in test [2] (first compound 0.001 µM); 0.953 in test [2] (first compound 0.003162 µM). The relative viability amounted to 0.88 in test [2] (first compound 0.01 µM); 0.696 in test [2] (first compound 0.03162 µM); 0.504 in test [2] (first compound 0.1 µM); 0.558 in the test with Halofuginone + Lapatinib (first compound 0.001 µM); 0.546 in the test with Halofuginone + Lapatinib (first compound 0.003162 µM); 0.424 in the test with Halofuginone + Lapatinib (first compound 0.01 µM). The results for the relative viability in the test with Halofuginone + Lapatinib (first compound 0.03162 µM) and with Halofuginone + Lapatinib (first compound 0.1 µM) were 0.508 and 0.366, respectively.
Take NCI-H727: the relative viability with Cediranib + Foretinib (first compound 0.1265 µM) stood at 1.05; with Cediranib + Foretinib (first compound 0.4 µM), 0.868; with Cediranib + Foretinib (first compound 1.265 µM), 0.84; in the test with Cediranib + Foretinib (first compound 4 µM), 0.93; in test [1] (first compound 0.001 µM), 0.44; in test [1] (first compound 0.003162 µM), 0.362. For the same cell line, the relative viability was determined as 0.403 in test [1] (first compound 0.01 µM); 0.406 in test [1] (first compound 0.03162 µM); 0.422 in test [1] (first compound 0.1 µM); 0.258 in test [2] (first compound 0.001 µM); 0.327 in test [2] (first compound 0.003162 µM); 0.435 in test [2] (first compound 0.01 µM). Also, the relative viability in test [2] (first compound 0.03162 µM) came out at 0.389; in test [2] (first compound 0.1 µM), 0.355; in the test with Halofuginone + Lapatinib (first compound 0.001 µM), 0.704; with Halofuginone + Lapatinib (first compound 0.003162 µM), 0.676; with Halofuginone + Lapatinib (first compound 0.01 µM), 0.949; in the test with Halofuginone + Lapatinib (first compound 0.03162 µM) it was 0.798. Also, in the test with Halofuginone + Lapatinib (first compound 0.1 µM), the relative viability is 0.508.
Turning to NCI-H838, the relative viability with Cediranib + Foretinib (first compound 0.04 µM) turned out to be 1.02; in the test with Cediranib + Foretinib (first compound 0.1265 µM), 1.02; with Cediranib + Foretinib (first compound 0.4 µM), 0.994; with Cediranib + Foretinib (first compound 1.265 µM) it was 1.01; with Cediranib + Foretinib (first compound 4 µM), 1.05; in test [1] (first compound 0.001 µM) it was 0.504. Besides, the relative viability was 0.518 in test [1] (first compound 0.003162 µM); 0.468 in test [1] (first compound 0.01 µM); 0.38 in test [1] (first compound 0.03162 µM); 0.191 in test [1] (first compound 0.1 µM); 0.366 in test [2] (first compound 0.001 µM); 0.257 in test [2] (first compound 0.003162 µM). In addition, the relative viability in test [2] (first compound 0.01 µM) was determined as 0.335; in test [2] (first compound 0.03162 µM), 0.349; in test [2] (first compound 0.1 µM) it was 0.158; with Halofuginone + Lapatinib (first compound 0.001 µM), 1.25; with Halofuginone + Lapatinib (first compound 0.003162 µM), 1.16; with Halofuginone + Lapatinib (first compound 0.01 µM), 0.891. The figures for the relative viability with Halofuginone + Lapatinib (first compound 0.03162 µM) and with Halofuginone + Lapatinib (first compound 0.1 µM) were 0.748 and 0.164, respectively.
As to NCI-H1355, the relative viability with Cediranib + Foretinib (first compound 0.04 µM) was found to be 0.991; in the test with Cediranib + Foretinib (first compound 0.1265 µM), 1.02; with Cediranib + Foretinib (first compound 0.4 µM), 0.894; with Cediranib + Foretinib (first compound 1.265 µM) it was 0.948; in the test with Cediranib + Foretinib (first compound 4 µM), 1.09; in test [1] (first compound 0.001 µM), 0.481. In addition, the relative viability in test [1] (first compound 0.003162 µM) worked out at 0.429; in test [1] (first compound 0.01 µM), 0.4; in test [1] (first compound 0.03162 µM), 0.415; in test [1] (first compound 0.1 µM), 0.4; in test [2] (first compound 0.001 µM), 0.716; in test [2] (first compound 0.003162 µM), 0.635. Further, the relative viability was determined as 0.672 in test [2] (first compound 0.01 µM); 0.672 in test [2] (first compound 0.03162 µM); 0.579 in test [2] (first compound 0.1 µM); 1.03 with Halofuginone + Lapatinib (first compound 0.001 µM); 1.03 with Halofuginone + Lapatinib (first compound 0.003162 µM); 0.972 with Halofuginone + Lapatinib (first compound 0.01 µM). Moreover, the relative viability with Halofuginone + Lapatinib (first compound 0.03162 µM) was 0.984; with Halofuginone + Lapatinib (first compound 0.1 µM), 0.891.
NCI-H1395: the relative viability with Cediranib + Foretinib (first compound 0.04 µM) was 1.1; in the test with Cediranib + Foretinib (first compound 0.1265 µM), 1.01; in the test with Cediranib + Foretinib (first compound 0.4 µM), 0.911; in the test with Cediranib + Foretinib (first compound 1.265 µM) it was 0.976; with Cediranib + Foretinib (first compound 4 µM), 1.13; in test [1] (first compound 0.001 µM), 0.95. Also, the relative viability was determined as 1.03 in test [1] (first compound 0.003162 µM); 0.912 in test [1] (first compound 0.01 µM); 0.889 in test [1] (first compound 0.03162 µM); 0.746 in test [1] (first compound 0.1 µM); 0.826 in test [2] (first compound 0.001 µM); 0.655 in test [2] (first compound 0.003162 µM). Further, the relative viability is 0.626 in test [2] (first compound 0.01 µM); 0.656 in test [2] (first compound 0.03162 µM); 0.642 in test [2] (first compound 0.1 µM); 1.02 with Halofuginone + Lapatinib (first compound 0.001 µM); 0.873 with Halofuginone + Lapatinib (first compound 0.003162 µM); 1.04 in the test with Halofuginone + Lapatinib (first compound 0.01 µM). In addition, the relative viability with Halofuginone + Lapatinib (first compound 0.03162 µM) is 0.891; with Halofuginone + Lapatinib (first compound 0.1 µM) it was 0.71.
Turning to NCI-H1437, the relative viability is 1.34 in the test with Cediranib + Foretinib (first compound 0.04 µM); 1.22 with Cediranib + Foretinib (first compound 0.1265 µM); 1.24 with Cediranib + Foretinib (first compound 0.4 µM); 1.25 with Cediranib + Foretinib (first compound 1.265 µM); 1.32 with Cediranib + Foretinib (first compound 4 µM); 0.548 in test [1] (first compound 0.001 µM). The relative viability in test [1] (first compound 0.003162 µM) stood at 0.553; in test [1] (first compound 0.01 µM), 0.558; in test [1] (first compound 0.03162 µM), 0.481; in test [1] (first compound 0.1 µM) it was 0.387; in test [2] (first compound 0.001 µM), 1.12; in test [2] (first compound 0.003162 µM), 1.1. Moreover, the relative viability in test [2] (first compound 0.01 µM) stood at 1.1; in test [2] (first compound 0.03162 µM), 1.04; in test [2] (first compound 0.1 µM), 0.879; with Halofuginone + Lapatinib (first compound 0.001 µM), 0.835; with Halofuginone + Lapatinib (first compound 0.003162 µM) it was 0.91; with Halofuginone + Lapatinib (first compound 0.01 µM), 0.721. In addition, the relative viability in the test with Halofuginone + Lapatinib (first compound 0.03162 µM) was determined as 0.755; with Halofuginone + Lapatinib (first compound 0.1 µM) it was 0.465.
